According to paper PMC11887051, “Discovery of ONO-2920632 (VU6011887): A Highly Selective and CNS Penetrant TREK-2 (TWIK-Related K+ Channel 2) Preferring Activator In Vivo Tool Compound” (ACS Chemical Neuroscience, 2025):

Key:
TREK-2 = target: T1, TREK-2 (Homo sapiens, UniProt P57789); test: manual patch clamp (MPC) assay, TREK-2, species not stated; type: cell-based
T1 sequence (P57789 1-538): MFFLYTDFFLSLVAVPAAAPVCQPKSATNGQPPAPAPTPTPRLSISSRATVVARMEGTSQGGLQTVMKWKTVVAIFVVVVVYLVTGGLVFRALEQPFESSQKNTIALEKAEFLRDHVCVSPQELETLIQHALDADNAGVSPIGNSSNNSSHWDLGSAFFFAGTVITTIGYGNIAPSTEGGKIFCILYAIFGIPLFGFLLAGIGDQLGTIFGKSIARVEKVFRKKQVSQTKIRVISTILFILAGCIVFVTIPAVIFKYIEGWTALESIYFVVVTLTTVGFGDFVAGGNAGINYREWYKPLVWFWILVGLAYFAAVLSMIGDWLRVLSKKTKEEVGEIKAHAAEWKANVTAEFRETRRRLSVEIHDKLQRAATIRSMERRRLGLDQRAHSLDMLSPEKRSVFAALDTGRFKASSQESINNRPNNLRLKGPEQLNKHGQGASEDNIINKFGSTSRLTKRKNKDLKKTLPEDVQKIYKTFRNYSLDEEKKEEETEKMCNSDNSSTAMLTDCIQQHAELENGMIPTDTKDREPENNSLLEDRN

Interleukin IL-1 R1 = Interleukin IL-1 R1 (Mus musculus, UniProt P13504); test: Eurofins Lead Profiling radioligand binding; conditions: title: 30 μM
[1] = target: Epidermal Growth Factor (EGF) (Homo sapiens, UniProt P00533); test: Eurofins Lead Profiling radioligand binding; conditions: title: 30 μM
Tachykinin NK1 = Tachykinin NK1 (Homo sapiens, UniProt P25103); test: Eurofins Lead Profiling radioligand binding; conditions: title: 30 μM
[2] = mouse PO PK study (C57BL/6); type: in vivo; conditions: 3 mg/kg PO; for concentration at 2 h: C57BL/6, mouse, po
Method: (§1) Plasma and brain tissue samples originating from in vivo studies were analyzed by electrospray ionization using an AB Sciex Q-TRAP 5500 (Foster City, CA) that was coupled to a Shimadzu LC-20AD pump (Columbia, MD) and a Leap Technologies CTC PAL auto-sampler (Carrboro, NC). Analytes were separated by gradient elution using a C18 column (3 x 50 mm, 3 mm; Fortis Technologies Ltd, Cheshire, UK) that was thermostated at 40 °C. HPLC mobile phase A was 0.1% formic acid in water (pH unadjusted); mobile phase B was 0.1% formic acid in acetonitrile (pH […]
(§2) min, with an isocratic hold for 0.5 min, before transitioning to 10% B over 0.05 min. The column was re-equilibrated (1 min) before the next sample injection. The total run time was 2.55 min, and the HPLC flow rate was 0.5 ml/min. The source temperature was set at 500 °C, and mass spectral analyses were performed using a Turbo-Ion spray source in positive ionization mode (5.0-kV spray voltage) and using multiple-reaction monitoring of transitions specific for the analytes. All data were analyzed using AB Sciex Analyst 1.5.1 software.
(§3) Brain plasma concentration ratio (Kp) was calculated by dividing brain concentration by plasma concentration for each animal. Unbound brain to unbound plasma concentration ratio (Kp,uu) is calculated using the following formula: Kp,uu = (Brain ng/g x brain fu)/(plasma ng/ml x plasma fu).
(§4) For determination of the plasma concentration-time profile, compounds were formulated in methyl cellulose and administered as a 3 mg/kg PO dose to male C57BL/6 mouse or SD rat (n = 2). For the same determination, compounds were formulated in HP-β-CD and administered as a 0.1 mg/kg IV dose to male beagle dog (n = 2).
(§5) Plasma samples originating from in vivo studies were analyzed by electrospray ionization using a Q-TRAP 5500 (AB Sciex) that was coupled to a Prominence UFLC XR (Shimadzu Corporation).
(§6) Analytes were separated by gradient elution using a Shim-pack XR-ODS II (2 x 75 mm, 2.2μm, Shimadzu Corporation) that was thermostated at 40 °C. HPLC mobile phase A was 5 mM ammonium acetate containing 0.2% formic acid in water (pH unadjusted); mobile phase B was […]
(§7) hold for 1.5 min, before transitioning to 10% B over 0.1 min. The column was re-equilibrated (0.9 min) before the next sample injection. The total run time was 4.0 min, and the HPLC flow rate was 0.5 ml/min. The source temperature was set at 600 °C, and mass spectral analyses were performed using a Turbo-Ion spray source in positive ionization mode and using multiple-reaction

Potassium Channel [SKCA] = test: Eurofins Lead Profiling radioligand binding; set-up: species or system Rat; conditions: title: 30 μM
Sigma σ1 = Sigma σ1 (Homo sapiens, UniProt Q99720); test: Eurofins Lead Profiling radioligand binding; conditions: title: 30 μM
Androgen (Testosterone) = Androgen (Testosterone) (Homo sapiens, UniProt P10275); test: Eurofins Lead Profiling radioligand binding; conditions: title: 30 μM
Muscarinic M2 = Muscarinic M2 (Homo sapiens, UniProt P08172); test: Eurofins Lead Profiling radioligand binding; conditions: title: 30 μM
rat PO PK study = type: in vivo; conditions: male, Sprague-Dawley, 3 mg/kg PO
Method: as §1, §2, §3, §4, §5, §6, §7

Endothelin ETA = Endothelin ETA (Homo sapiens, UniProt P25101); test: Eurofins Lead Profiling radioligand binding; conditions: title: 30 μM
Vanilloid = Vanilloid (Rattus norvegicus, UniProt O35433); test: Eurofins Lead Profiling radioligand binding; conditions: title: 30 μM
[3] = target: Transporter, Serotonin (SERT) (Homo sapiens, UniProt P31645); test: Eurofins Lead Profiling radioligand binding; conditions: title: 30 μM
Serotonin (5-HT1A) = Serotonin (5-HT1A) (Homo sapiens, UniProt P08908); test: Eurofins Lead Profiling radioligand binding; conditions: title: 30 μM
Glutamate, NMDA, Agonism = test: Eurofins Lead Profiling radioligand binding; set-up: species or system Rat; conditions: title: 30 μM
Muscarinic M3 = Muscarinic M3 (Homo sapiens, UniProt P20309); test: Eurofins Lead Profiling radioligand binding; conditions: title: 30 μM
Sequence of Muscarinic M3 (P20309 whole entry): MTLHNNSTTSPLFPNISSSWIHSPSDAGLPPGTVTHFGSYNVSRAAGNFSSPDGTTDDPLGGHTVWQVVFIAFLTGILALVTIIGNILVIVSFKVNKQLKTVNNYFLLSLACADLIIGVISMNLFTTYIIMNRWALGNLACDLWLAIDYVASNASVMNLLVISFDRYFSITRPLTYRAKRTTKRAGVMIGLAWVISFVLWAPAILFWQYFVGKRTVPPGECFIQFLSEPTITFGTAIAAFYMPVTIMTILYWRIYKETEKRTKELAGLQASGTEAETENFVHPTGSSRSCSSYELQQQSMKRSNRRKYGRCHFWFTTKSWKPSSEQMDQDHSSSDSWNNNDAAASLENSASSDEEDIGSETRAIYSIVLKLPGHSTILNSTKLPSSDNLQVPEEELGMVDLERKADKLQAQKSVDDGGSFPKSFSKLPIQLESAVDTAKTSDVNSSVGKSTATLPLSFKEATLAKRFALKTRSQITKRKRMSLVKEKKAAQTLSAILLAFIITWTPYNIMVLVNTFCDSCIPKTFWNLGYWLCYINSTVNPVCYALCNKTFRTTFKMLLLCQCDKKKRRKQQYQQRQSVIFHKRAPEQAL

Sequence of Transporter, Serotonin (SERT) (P31645 whole entry): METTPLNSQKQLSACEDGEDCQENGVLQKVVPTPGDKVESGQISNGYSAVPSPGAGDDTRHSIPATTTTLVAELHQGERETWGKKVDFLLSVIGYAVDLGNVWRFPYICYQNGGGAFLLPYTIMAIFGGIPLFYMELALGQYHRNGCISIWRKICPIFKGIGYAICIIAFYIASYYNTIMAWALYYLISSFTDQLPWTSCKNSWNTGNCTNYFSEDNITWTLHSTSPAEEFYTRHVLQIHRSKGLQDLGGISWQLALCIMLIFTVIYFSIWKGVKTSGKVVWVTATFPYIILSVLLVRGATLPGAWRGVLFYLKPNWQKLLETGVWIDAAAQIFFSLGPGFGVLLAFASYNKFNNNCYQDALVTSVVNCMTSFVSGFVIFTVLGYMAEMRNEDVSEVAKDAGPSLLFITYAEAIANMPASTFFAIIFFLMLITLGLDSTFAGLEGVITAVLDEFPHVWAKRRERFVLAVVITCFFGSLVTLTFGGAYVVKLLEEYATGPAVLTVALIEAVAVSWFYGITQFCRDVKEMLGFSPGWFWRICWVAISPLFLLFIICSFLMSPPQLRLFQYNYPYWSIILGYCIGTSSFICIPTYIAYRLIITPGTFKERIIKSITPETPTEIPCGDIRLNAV
Sequence of Interleukin IL-1 R1 (P13504 20-576): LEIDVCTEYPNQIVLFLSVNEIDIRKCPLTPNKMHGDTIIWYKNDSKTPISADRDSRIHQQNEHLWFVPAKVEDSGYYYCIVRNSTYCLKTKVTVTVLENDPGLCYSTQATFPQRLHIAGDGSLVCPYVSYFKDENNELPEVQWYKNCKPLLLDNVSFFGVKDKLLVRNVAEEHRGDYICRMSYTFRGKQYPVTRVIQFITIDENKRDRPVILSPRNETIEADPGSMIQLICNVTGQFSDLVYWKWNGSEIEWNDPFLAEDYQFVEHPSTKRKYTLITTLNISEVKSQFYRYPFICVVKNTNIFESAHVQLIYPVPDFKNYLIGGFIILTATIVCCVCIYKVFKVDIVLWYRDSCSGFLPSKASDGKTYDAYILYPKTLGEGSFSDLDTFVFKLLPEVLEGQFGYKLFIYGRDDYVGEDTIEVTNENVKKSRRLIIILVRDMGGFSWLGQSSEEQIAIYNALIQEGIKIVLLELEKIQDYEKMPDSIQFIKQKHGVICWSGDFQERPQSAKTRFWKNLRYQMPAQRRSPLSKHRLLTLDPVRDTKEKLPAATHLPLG
Sequence of Tachykinin NK1 (P25103 whole entry): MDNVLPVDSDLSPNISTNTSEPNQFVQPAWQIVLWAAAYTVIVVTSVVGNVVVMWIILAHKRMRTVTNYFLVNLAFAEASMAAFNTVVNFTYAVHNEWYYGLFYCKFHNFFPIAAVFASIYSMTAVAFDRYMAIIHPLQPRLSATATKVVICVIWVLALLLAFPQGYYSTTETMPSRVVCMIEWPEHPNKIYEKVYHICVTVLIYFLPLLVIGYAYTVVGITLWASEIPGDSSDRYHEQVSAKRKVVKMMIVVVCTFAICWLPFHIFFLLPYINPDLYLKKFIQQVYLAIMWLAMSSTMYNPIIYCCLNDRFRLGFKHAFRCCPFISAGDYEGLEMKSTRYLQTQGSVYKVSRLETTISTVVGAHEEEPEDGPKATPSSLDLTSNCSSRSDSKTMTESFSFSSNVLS
Sequence of Vanilloid (O35433 whole entry): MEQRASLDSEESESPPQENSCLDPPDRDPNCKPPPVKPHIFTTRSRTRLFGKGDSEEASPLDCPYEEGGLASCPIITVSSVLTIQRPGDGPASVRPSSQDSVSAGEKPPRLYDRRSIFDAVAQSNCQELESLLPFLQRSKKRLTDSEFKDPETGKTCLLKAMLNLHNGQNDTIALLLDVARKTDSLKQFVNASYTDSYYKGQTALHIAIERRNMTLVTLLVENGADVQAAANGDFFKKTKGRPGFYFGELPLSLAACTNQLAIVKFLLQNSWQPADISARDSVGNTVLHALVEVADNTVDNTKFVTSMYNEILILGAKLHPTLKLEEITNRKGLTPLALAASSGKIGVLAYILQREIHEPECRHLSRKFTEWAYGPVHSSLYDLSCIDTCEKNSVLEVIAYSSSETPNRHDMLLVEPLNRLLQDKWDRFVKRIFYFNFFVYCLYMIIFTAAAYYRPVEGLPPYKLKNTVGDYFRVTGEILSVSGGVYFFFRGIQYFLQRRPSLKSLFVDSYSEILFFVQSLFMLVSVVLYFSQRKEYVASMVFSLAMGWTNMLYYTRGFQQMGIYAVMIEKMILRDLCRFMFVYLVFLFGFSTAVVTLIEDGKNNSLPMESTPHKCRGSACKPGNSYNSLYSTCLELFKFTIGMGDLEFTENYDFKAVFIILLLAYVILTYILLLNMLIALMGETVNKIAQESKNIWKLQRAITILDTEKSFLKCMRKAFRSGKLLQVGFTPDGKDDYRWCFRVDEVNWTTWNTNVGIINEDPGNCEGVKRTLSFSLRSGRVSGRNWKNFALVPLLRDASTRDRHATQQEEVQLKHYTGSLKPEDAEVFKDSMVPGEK
Sequence of Endothelin ETA (P25101 21-427): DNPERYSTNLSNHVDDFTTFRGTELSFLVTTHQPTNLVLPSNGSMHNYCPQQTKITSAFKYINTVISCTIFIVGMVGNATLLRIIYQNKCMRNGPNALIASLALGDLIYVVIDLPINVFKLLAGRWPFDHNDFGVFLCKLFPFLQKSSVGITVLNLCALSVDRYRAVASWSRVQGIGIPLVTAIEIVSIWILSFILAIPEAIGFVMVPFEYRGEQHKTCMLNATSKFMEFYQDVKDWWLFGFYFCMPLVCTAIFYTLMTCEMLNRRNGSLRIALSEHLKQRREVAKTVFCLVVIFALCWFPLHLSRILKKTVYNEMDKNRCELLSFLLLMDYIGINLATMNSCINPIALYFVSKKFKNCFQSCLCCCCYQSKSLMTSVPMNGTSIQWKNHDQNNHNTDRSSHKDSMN
Sequence of Muscarinic M2 (P08172 whole entry): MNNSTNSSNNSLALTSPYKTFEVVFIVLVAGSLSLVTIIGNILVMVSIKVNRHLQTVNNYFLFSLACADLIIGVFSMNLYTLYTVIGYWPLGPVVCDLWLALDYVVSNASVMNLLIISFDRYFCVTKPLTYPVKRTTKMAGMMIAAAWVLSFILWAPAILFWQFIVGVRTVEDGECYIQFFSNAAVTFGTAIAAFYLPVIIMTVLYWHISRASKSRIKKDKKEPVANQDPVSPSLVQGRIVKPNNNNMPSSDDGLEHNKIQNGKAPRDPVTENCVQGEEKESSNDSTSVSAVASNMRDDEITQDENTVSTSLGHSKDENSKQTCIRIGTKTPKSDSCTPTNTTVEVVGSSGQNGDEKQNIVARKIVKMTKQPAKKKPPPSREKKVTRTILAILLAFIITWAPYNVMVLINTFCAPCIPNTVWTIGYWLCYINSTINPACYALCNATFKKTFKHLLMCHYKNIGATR
Sequence of Serotonin (5-HT1A) (P08908 whole entry): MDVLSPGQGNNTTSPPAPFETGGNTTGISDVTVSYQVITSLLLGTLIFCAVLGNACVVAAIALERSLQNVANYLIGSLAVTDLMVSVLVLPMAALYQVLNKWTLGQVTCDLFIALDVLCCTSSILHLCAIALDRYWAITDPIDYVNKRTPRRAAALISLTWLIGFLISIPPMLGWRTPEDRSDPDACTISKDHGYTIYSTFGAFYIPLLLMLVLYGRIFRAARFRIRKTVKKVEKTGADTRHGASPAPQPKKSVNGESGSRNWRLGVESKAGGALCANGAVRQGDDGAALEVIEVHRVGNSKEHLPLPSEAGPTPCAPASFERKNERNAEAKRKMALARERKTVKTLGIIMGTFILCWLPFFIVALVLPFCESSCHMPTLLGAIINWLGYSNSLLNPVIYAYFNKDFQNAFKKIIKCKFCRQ
Sequence of Sigma σ1 (Q99720 whole entry): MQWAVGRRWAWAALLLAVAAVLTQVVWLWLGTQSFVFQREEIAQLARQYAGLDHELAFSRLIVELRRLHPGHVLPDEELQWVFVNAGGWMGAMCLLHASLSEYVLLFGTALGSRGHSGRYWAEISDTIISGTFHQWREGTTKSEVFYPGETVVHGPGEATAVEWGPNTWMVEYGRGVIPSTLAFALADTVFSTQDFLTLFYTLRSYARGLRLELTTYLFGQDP

**Q.** What does the source list for `CS(=O)(=O)Nc1ccc(C(=O)NCc2ccc(Cl)cc2Cl)cc1` [Compound 13]?
**A.** selectivity for TREK-2 in MPC assay (TREK-2; TREK-2 over TREK-1, manual patch clamp): ~8 fold; EC50 (TREK-2; manual patch clamp): 950 nM; Emax (TREK-2; manual patch clamp): 126%

**Q.** For `O=C(NCc1ccc(OC(F)(F)F)cc1F)c1ccc2ncnn2c1` [Compound 19b], which inhibition (Interleukin IL-1 R1) is on record?
**A.** 9%

**Q.** What about the inhibition [1] of the same compound?
**A.** 2%

**Q.** What about the inhibition (Tachykinin NK1) of the same compound?
**A.** 2%

**Q.** And the total brain concentration ([2]; 2 h, 3 mg/kg)?
**A.** ~3 µM

**Q.** And the concentration at 2 h ([2]; male, CSF, 3 mg/kg, 2 h, read-out: CSF level)?
**A.** 220 nM

**Q.** And the concentration at 2 h ([2]; male, brain, 3 mg/kg, 2 h, read-out: free brain level)?
**A.** 920 nM

**Q.** And the concentration at 2 h ([2]; male, brain, 3 mg/kg, 2 h, read-out: total brain concentration)?
**A.** 3200 nM

**Q.** And the Cmax ([2]; male, plasma, C57BL/6 mice)?
**A.** 10500 nM

**Q.** What about the Tmax ([2]; male, plasma, C57BL/6 mice) of the same compound?
**A.** 3.8 h

**Q.** And the half-life ([2]; male, plasma, C57BL/6 mice)?
**A.** 19 h

**Q.** And the “% Inhibition at 10 µM” value (Potassium Channel [SKCA])?
**A.** 4%

**Q.** And the inhibition (Sigma σ1)?
**A.** 45%

**Q.** What about the inhibition (Androgen (Testosterone)) of the same compound?
**A.** 18%

**Q.** What about the inhibition (Muscarinic M2) of the same compound?
**A.** -3%

**Q.** What about the concentration at 2 h (rat PO PK study; brain, 2 h, read-out: total brain concentration) of the same compound?
**A.** 2680 nM

**Q.** And the concentration at 24 h (rat PO PK study; brain, 24 h, read-out: total brain concentration)?
**A.** 2890 nM

**Q.** What about the Cmax (rat PO PK study; plasma) of the same compound?
**A.** 10300 nM

**Q.** What about the Tmax (rat PO PK study; plasma) of the same compound?
**A.** 7 h

**Q.** What about the half-life (rat PO PK study; plasma) of the same compound?
**A.** > 24 h

**Q.** And the inhibition (Endothelin ETA)?
**A.** -3%

**Q.** And the inhibition (Vanilloid)?
**A.** -8%

**Q.** What about the inhibition [3] of the same compound?
**A.** 2%

**Q.** And the inhibition (Serotonin (5-HT1A))?
**A.** 2%

**Q.** What about the “% Inhibition at 10 µM” value (Glutamate, NMDA, Agonism) of the same compound?
**A.** -3%

**Q.** What about the inhibition (Muscarinic M3) of the same compound?
**A.** 8%
